From patent US7786141B2 (Vertex Pharmaceuticals Incorporated, priority 2004, dated 2010)

Experiments:
[1] = target: T1, M1 muscarinic receptor (Homo sapiens, UniProt P11229); test: Functional mobilization of intracellular calcium (FLIPR) in M1-CHO cells; assay type: cell-based; conditions: Table 4; for Emax: 100% efficacy is the maximum response obtained with the Carbachol control; for M1 Activity: modulating M1 receptor
T1 construct: expressed in transfected cells; host or cells: CHO (M1-CHO)
T1 sequence (P11229 1-460): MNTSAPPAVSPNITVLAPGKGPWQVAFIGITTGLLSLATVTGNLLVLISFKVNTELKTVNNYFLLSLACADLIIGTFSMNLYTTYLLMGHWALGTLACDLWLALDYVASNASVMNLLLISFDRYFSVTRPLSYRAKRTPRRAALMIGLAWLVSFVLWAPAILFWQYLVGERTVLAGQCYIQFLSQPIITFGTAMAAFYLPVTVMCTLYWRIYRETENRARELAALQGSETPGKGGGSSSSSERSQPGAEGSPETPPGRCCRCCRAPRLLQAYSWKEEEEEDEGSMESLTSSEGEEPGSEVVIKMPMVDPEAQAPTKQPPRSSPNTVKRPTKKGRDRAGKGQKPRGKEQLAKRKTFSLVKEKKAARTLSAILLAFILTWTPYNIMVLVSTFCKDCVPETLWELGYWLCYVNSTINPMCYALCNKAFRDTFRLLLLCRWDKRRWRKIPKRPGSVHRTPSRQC
Summary of the method: (§1)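 CHO cells stably expressing human M1 or M4 receptor were loaded with Fluo-3 AM (or Calcium 3 dye) in Hepes-buffered saline, pH 7.4, with 1 mM probenecid, 0.5% final DMSO. Agonist mode: compound added directly; antagonist mode: 15 min preincubation before carbachol at EC80. FLIPR fluorescence recorded 60 sec.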

[2] = target: T2, M4 muscarinic receptor (Homo sapiens, UniProt P08173); test: Functional mobilization of intracellular calcium (FLIPR) in M4-CHO cells; assay type: cell-based; conditions: Table 4; for Emax: 100% efficacy is the maximum response obtained with the Carbachol control; for M4 Activity: modulating M4 receptor
T2 construct: expressed in transfected cells; host or cells: CHO (M4-CHO)
T2 sequence (P08173 1-479): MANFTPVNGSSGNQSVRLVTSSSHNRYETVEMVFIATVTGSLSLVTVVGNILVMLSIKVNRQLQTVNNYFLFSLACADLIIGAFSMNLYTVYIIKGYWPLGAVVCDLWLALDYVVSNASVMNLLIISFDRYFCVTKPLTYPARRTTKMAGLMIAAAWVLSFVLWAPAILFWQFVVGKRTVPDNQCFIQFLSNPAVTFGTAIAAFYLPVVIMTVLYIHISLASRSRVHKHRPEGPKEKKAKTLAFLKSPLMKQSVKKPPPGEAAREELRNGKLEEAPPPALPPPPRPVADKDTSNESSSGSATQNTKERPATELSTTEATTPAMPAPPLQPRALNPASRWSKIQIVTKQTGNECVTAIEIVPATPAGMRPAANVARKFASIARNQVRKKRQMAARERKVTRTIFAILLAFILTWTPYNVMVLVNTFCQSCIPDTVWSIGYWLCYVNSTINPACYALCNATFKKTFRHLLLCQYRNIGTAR
Summary of the method: as §1

Row | SMILES | Emax [1] [%] | M1 Activity [1] | Emax [2] [%] | M4 Activity [2]
1 | CC#CCOC(=O)N1CC[C@H](CN2CCC3(CC2)CN(C(C)=O)c2cccc(C)c23)C1 [compound 445] | 25 to 100 | xxx (activity was measured to be less than 2.0 μM) | 25 to 100 | xxx (activity was measured to be less than 2.0 μM)
2 | COc1ccccc1C(=O)N1CCC(N2CCC3(CC2)CN(C(=O)N(C)C)c2ccc(F)cc23)CC1 [compound 446] | 25 to 100 | x (activity was measured to be greater than 5.0 μM) | < 25 | x (activity was measured to be greater than 5.0 μM)
3 | CC(=O)N[C@H]1CCC2(CCN(C[C@@H]3C[C@H]4C=C[C@H]3C4)CC2)c2ccccc21 [compound 447] | 25 to 100 | xxx (activity was measured to be less than 2.0 μM) | 25 to 100 | xxx (activity was measured to be less than 2.0 μM)
4 | O=C(N[C@H]1CC2(CCN(CC3CCCCC3)CC2)c2ccccc21)C1CCCC1 [compound 448] | < 25 | x (activity was measured to be greater than 5.0 μM) | < 25 | xxx (activity was measured to be less than 2.0 μM)
5 | C1=CC2CC1CC2CN1CCC2(CCCc3ccccc32)CC1 (stereo not drawn) [compound 449] | 25 to 100 | xx (activity was measured to be between 2.0 μM and 5.0 μM) | 25 to 100 | xxx (activity was measured to be less than 2.0 μM)
6 | CCOC(=O)N1CCC(N2CCC3(CC2)CN(C(C)=O)c2cccc(C)c23)CC1 [compound 450] | 25 to 100 | xxx (activity was measured to be less than 2.0 μM) | < 25 | x (activity was measured to be greater than 5.0 μM)
7 | Cc1nsc(N2CC3(CCN(C4CC5CCC(C4)N5c4nc(C)ns4)CC3)c3ccccc32)n1 (stereo not drawn) [compound 451] | 25 to 100 | xxx (activity was measured to be less than 2.0 μM) | 25 to 100 | xxx (activity was measured to be less than 2.0 μM)
8 | CC(=O)N[C@H]1CCC2(CCN(CCCC3CCCCC3)CC2)c2ccccc21 [compound 452] | 25 to 100 | xxx (activity was measured to be less than 2.0 μM) | < 25 | x (activity was measured to be greater than 5.0 μM)
9 | C#CCOC(=O)N1CCC(N2CCC3(CC2)CN(C(C)=O)c2cccc(C)c23)CC1 [compound 453] | 25 to 100 | xxx (activity was measured to be less than 2.0 μM) | < 25 | x (activity was measured to be greater than 5.0 μM)
10 | CCC(=O)CCN1CCC(N2CCC3(CC2)CN(C(C)=O)c2ccc(F)cc23)CC1 [compound 454] | < 25 | x (activity was measured to be greater than 5.0 μM) | < 25 | x (activity was measured to be greater than 5.0 μM)
11 | CCC#CCOC(=O)N1CC[C@H](CN2CCC3(CC2)CN(C(C)=O)c2cccc(C)c23)C1 [compound 455] | 25 to 100 | xxx (activity was measured to be less than 2.0 μM) | 25 to 100 | xxx (activity was measured to be less than 2.0 μM)
12 | CCCC#CCOC(=O)N1CCC(N2CCC3(CC2)CN(C(=O)N(C)C)c2ccc(F)cc23)CC1 [compound 456] | 25 to 100 | xxx (activity was measured to be less than 2.0 μM) | 25 to 100 | xxx (activity was measured to be less than 2.0 μM)
13 | CN(C)C(=O)N1CC2(CCN(C3CCN(c4ccncc4)CC3)CC2)c2cc(F)ccc21 [compound 458] | < 25 | x (activity was measured to be greater than 5.0 μM) | < 25 | x (activity was measured to be greater than 5.0 μM)
14 | COCCOC(=O)N1CC[C@@H](CN2CCC3(CC2)CN(C(C)=O)c2ccccc23)C1 [compound 459] | 25 to 100 | x (activity was measured to be greater than 5.0 μM) | < 25 | xx (activity was measured to be between 2.0 μM and 5.0 μM)
15 | COCCN1CC2(CCN(C3CCN(C(=O)OCCF)CC3)CC2)c2cc(F)ccc21 [compound 460] | 25 to 100 | xxx (activity was measured to be less than 2.0 μM) | 25 to 100 | xxx (activity was measured to be less than 2.0 μM)
16 | CC(=O)N1CC2(CCN(C3CCN(c4cncc(-c5ccccc5F)n4)CC3)CC2)c2ccccc21 [compound 461] | 25 to 100 | xx (activity was measured to be between 2.0 μM and 5.0 μM) | < 25 | x (activity was measured to be greater than 5.0 μM)
17 | CC(=O)CN1CC2(CCN(C3CC4CCC(C4)C3)CC2)c2cc(F)ccc21 (stereo not drawn) [compound 462] | 25 to 100 | xxx (activity was measured to be less than 2.0 μM) | 25 to 100 | xxx (activity was measured to be less than 2.0 μM)
18 | C[C@@H](O)CC(=O)N1CCC(N2CCC3(CC2)CN(C(=O)N(C)C)c2ccc(F)cc23)CC1 [compound 463] | 25 to 100 | x (activity was measured to be greater than 5.0 μM) | < 25 | x (activity was measured to be greater than 5.0 μM)
19 | CCC(=O)N1CCC(N2CCC3(CC2)CN(C(=O)N(C)C)c2ccc(F)cc23)CC1 [compound 464] | 25 to 100 | xx (activity was measured to be between 2.0 μM and 5.0 μM) | 25 to 100 | xx (activity was measured to be between 2.0 μM and 5.0 μM)
20 | CCOC(=O)N1C2CCC1CC(N1CCC3(CC1)CN(C(C)=O)c1ccc(OC(F)(F)F)cc13)C2 (stereo not drawn) [compound 466] | 25 to 100 | xxx (activity was measured to be less than 2.0 μM) | 25 to 100 | xxx (activity was measured to be less than 2.0 μM)
21 | CCOC(=O)N1CCC(N2CCC3(CC2)CN(C(C)=O)c2c(-c4cccc(OC)c4)cccc23)CC1 [compound 467] | 25 to 100 | xx (activity was measured to be between 2.0 μM and 5.0 μM) | 25 to 100 | xx (activity was measured to be between 2.0 μM and 5.0 μM)
22 | CN(C)C(=O)N[C@H]1CCC2(CCN(C3CC4CCC(C4)C3)CC2)c2ccccc21 (stereo partly drawn) [compound 468] | 25 to 100 | xx (activity was measured to be between 2.0 μM and 5.0 μM) | 25 to 100 | xxx (activity was measured to be less than 2.0 μM)
23 | CCCN1CC2(CCN(C3CCN(C(=O)OCC)CC3)CC2)c2cc(F)ccc21 [compound 469] | 25 to 100 | xxx (activity was measured to be less than 2.0 μM) | 25 to 100 | xxx (activity was measured to be less than 2.0 μM)
24 | Cc1ccc2c(c1)C(=O)CC21CCN(CC2C[C@H]3CC[C@H]2C3)CC1 (stereo partly drawn) [compound 470] | 25 to 100 | xx (activity was measured to be between 2.0 μM and 5.0 μM) | 25 to 100 | xx (activity was measured to be between 2.0 μM and 5.0 μM)
